Results from patent US20240329033A1, “MonoMac-1 Cells Expressing CD16 and CD163” (Temple University-Of The Commonwealth System of Higher …, priority 2016, published 2024).

B1: macrophage colony-stimulating factor (protein, UniProt P09603 33-554, looked up)
Macrophage colony-stimulating …: EEVSEYCSHMIGSGHLQSLQRLIDSQMETSCQITFEFVDQEQLKDPVCYLKKAFLLVQDIMEDTMRFRDNTPNAIAIVQLQELSLRLKSCFTKDYEEHDKACVRTFYETPLQLLEKVKNVFNETKNLLDKDWNIFSKNCNNSFAECSSQDVVTKPDCNCLYPKAIPSSDPASVSPHQPLAPSMAPVAGLTWEDSEGTEGSSLLPGEQPLHTVDPGSAKQRPPRSTCQSFEPPETPVVKDSTIGGSPQPRPSVGAFNPGMEDILDSAMGTNWVPEEASGEASEIPVPQGTELSPSRPGGGSMQTEPARPSNFLSASSPLPASAKGQQPADVTGTALPRVGPVRPTGQDWNHTPQKTDHPSALLRDPPEPGSPRISSLRPQGLSNPSTLSAQPQLSRSHSSGSVLPLGELEGRRSTRDRRSPAEPEGGPASEGAARPLPRFNSVPLTDTGHERQSEGSFSPQLQESVFHLLVPSVILVLLAVGGLLFYRWRRRSHQEPQRADSPLEQPEGSPLTQDDRQVELPV
B2: IFN γ: cytokine inducer of IDO enzyme induction (protein, UniProt P01579 24-161, looked up)
Interferon gamma: QDPYVKEAENLKKYFNAGHSDVADNGTLFLGILKNWKEESDRKIMQSQIVSFYFKLFKNFKDDQSIQKSVETIKEDMNVKFFNSNKKKRDDFEKLTNYSVTDLNVQRKAIHELIQVMAELSPAAKTGKRKRSQMLFRG

What was measured:
Type in all cases: cell-based, human
[1] = system: tryptophan catabolism/IDO activity in MonoMac-1; assay: Tryptophan catabolism/IDO activity (kynurenine/tryptophan in cell culture supernatant) in MonoMac-1; conditions: for kynurenine/tryptophan ratio: cell culture supernatant, FIG. 7C
From the text: A major mechanism for inflammation and disease pathogenesis involves tryptophan catabolism via the kynurenine pathway. As such we evaluated cytokine inducers of IDO enzyme induction, a limiting step in the kynurenine pathway.
TNF α and IFN γ induce tryptophan catabolism/IDO activity as determined by increase in the kynurenine/tryptophan ratio in cell culture supernatant, in response to TNF alpha and IFN gamma treatment (FIG. 7).

MCP-1 = MCP-1 concentration in MonoMac-1 culture; conditions: FIG. 8
MONO-MAC-1 cells = assay: Flow cytometry of CD163, CD16 and CD4 expression in differentiated MONO-MAC-1 cells; conditions: for expression of CD163+ / expression of CD16+: added for 24 hours to MonoMac-1 treated with PMA+DEX+MCSF+LPS; for expression of CD163+: FIG. 6A; for expression of CD16+: FIG. 6B
Experimental: MONO-MAC-1 cells were cultured at 37° C. in a humidified atmosphere containing 5% CO2 using RPM1 1640 medium supplemented with 10% heat-inactivated fetal bovine serum (FBS, Sigma) and 1% of stable glutamine, 1 mM sodium pyruvic acid and 1×MEM non-essential amino acids were added. Cells were seeded at a density of 0.5×10^6 cells/ml and were sub cultured upon reaching 1× 10^6 cells/ml. Medium was changed every 2 to 3 days. […] Data were analyzed with GraphPad Prism (version 6) soft-ware. Flow cytometric measurements were performed using four colors FACSCalibur (Becton Dickinson).

[2] = induction: PMA 20 ng/ml ± LPS 10 ng/ml 3 days, then MCSF 5 ng/ml + DEX 200 ng/ml 4 days, FIG. 1A

| Molecule | kynurenine/tryptophan ratio [1] | MCP-1 concentration (MCP-1) | expression of CD163+ (MONO-MAC-1 cells) | expression of CD16+ (MONO-MAC-1 cells) | expression of CD163+ monocytes (MONO-MAC-1 cells; [2]) | other results |
| --- | --- | --- | --- | --- | --- | --- |
| TNF α | increase | increase MCP-1 | further increase the expression | further increase the expression |  |  |
| lipopolysaccharide [LPS, reference compound] |  |  |  |  | has the most effect | percentage of CD16+CD163+ monocytes (MONO-MAC-1 cells; induction: PMA ± LPS 3 days, then DEX+MCSF 4 days, FIG. 2, FIG. 3): required to have maximum effect |
| FC(F)(F)c1ccc(CNc2ccc(Cc3c[nH]c4ncc(Cl)cc34)cn2)cn1 [PLX3397, reference compound] |  |  |  |  |  | expression of CD16+ monocytes (MONO-MAC-1 cells; antagonist 500 nM added after PMA/LPS 72 h and 4 days MCSF+DEX, FIG. 4A): reduction in expression; expression of CD4+ monocytes (MONO-MAC-1 cells; antagonist 500 nM added after PMA/LPS 72 h and 4 days MCSF+DEX, FIG. 4B): reduction in expression; expression of CD163+ monocytes (MONO-MAC-1 cells; antagonist 500 nM added after PMA/LPS 72 h and 4 days MCSF+DEX, FIG. 4C): significantly decreases expression |
| B1 |  |  |  |  | promotes expression |  |
| B2 | increase | increase MCP-1 | further increase the expression | further increase the expression |  | tryptophan concentration ([1]; added to the combination of PMA, LPS, MCSF and DEX, FIG. 7A): decreased; kynurenine concentration ([1]; added to the combination of PMA, LPS, MCSF and DEX, FIG. 7B): increased |
